In publication PMC11061149, “Protein mimetic 2D FAST rescues alpha synuclein aggregation mediated early and post disease Parkinson’s phenotypes” (Nature Communications, 2024):
Values joined by “and” are separate entries in the source; they are usually repeats but may differ in a detail not shown here. Equal entries are not always repeated.

What was measured:
UA196 worms = assay: Confocal counting of healthy DA neurons, post-disease onset PD model of UA196 worms (treatment on day five); type: in vivo, C. elegans; settings: for number of intact healthy DA neurons (max. 60): day 15 (untreated 13.8 / 12.8); for healthy DA neurons per trial: UA196 worms+Ligands, single trials 1-6, day not given; for Healthy DA neurons, UA196 worms+Ligands: individual trials 1-6
Method: The UA196 worms were bleached, and the eggs were incubated on PLATE 1. On day two, the UA196 worms were transferred (using M9 buffer) on PLATE 2 (without ligand). On day five, 10 UA196 worms were used to determine the number of healthy DA worms using confocal imaging (as described earlier) prior to the treatment with ligands on day five. In tandem, ~50 worms were transferred to PLATE 3 (with ligand) using M9 buffer (10-20 µL) and the plate was incubated at 20 °C in the incubator. On days 10 and 15, 10 UA196 worms from PLATE 2 (without ligand) and PLATE 3 (with ligand) were used to determine the number of healthy DA worms using confocal imaging (as described earlier). For each condition, six biological replicates were performed and at least 10 technical replicates were used for each biological replicate. […] (n = 6 independent experiments and each n consisted of a minimum of ten technical replicates).

[1] = tested on: UA196 worms (human αS and GFP in DA neurons); assay: Confocal counting of healthy DA neurons in UA196 worms, early treatment (day two and four); type: in vivo, C. elegans; settings: for number of intact DA neurons in UA196 worms (max. 60): 50 µM ligand on day two and four, day 15 (untreated 13.5); for Number of healthy DA neurons per trial (sheet 7L): UA196 worms + ligand, Day 15, single trials; for Total neurons, UA196 worms+Ligands: one value per trial, day not given for ligand (controls: Day 3, Day 15)
Description: The aggregation of αS is associated with the neurodegeneration of DA neurons, which is a pathological hallmark of PD. Next, we investigated the neuroprotective effect of NS163 on the intraneuronal αS aggregation-mediated degeneration of DA neurons in a well-established C. elegans PD model (UA196)[20],[72]–[75]. The UA196 worms express both human αS and GFP in DA neurons under the control of the dopamine promoter genotype (Pdat-1::GFP; Pdat-1::α-SYN). The expression and aggregation of αS in six DA neurons that are located within the anterior region of worms lead to progressive neurodegeneration characteristics during the aging of UA196 worms. This strain has been used to gain insights into the PD-associated mechanisms and to assess the neuroprotective effect of ligands against the intraneuronal αS aggregation[20],[72]–[75]. During the aging of worms, αS protein aggregates and degenerates the DA neurons as represented by the gradual loss of cell bodies as observed from day 3 (Fig. 7b, c, filled red arrow) to day 5 (Fig. 7d, e, empty red arrow), to day 15 (Fig. 7f, g, empty red arrow). Additionally, there was fragmentation and blebbing of neurites from day 3 (Fig. 7b, c, filled yellow arrow) to day 5 (Fig. 7d, e, empty yellow arrow), which has been observed by others as well[72]–[75]. The maximum number of healthy DA neurons in one UA196 worm is six on day 3 (no degeneration) and we used 10 worms/biological replicate, which makes a total of 60 healthy DA neurons/biological replicate. Therefore, for each study, the maximum number of healthy DA neurons in UA196 worms is 60 as an average for each biological replicate. […] None of the UA196 worms had all six healthy DA neurons on day 5 (Fig. 7k, -NS163) and there was a gradual decline in the total number of healthy DA neurons in UA196 worms (Supplementary Fig. 26a). […] The average number of intact DA neurons in UA196 worms treated with NS163 was 59.5, 58.7, and 57.3 on day five, 10, and 15, respectively (Fig. 7j, red line). Additionally, the total number of treated worms with all six intact DA neurons were 57, 52, and 47 on day 5, 10, and 15, respectively (Fig. 7k, Supplementary Fig. 26b).
In UA196 strain, human αS and GFP are expressed in DA neurons under control of a dopamine transporter-specific promoter [Pdat-1::α-syn+Pdat-1::GFP], which results in age-dependent neurodegeneration of six DA neurons.
This experiment was performed based on previously described protocols with slight modifications[24],[65],[88]. Briefly, the worm strains (NL5901 or UA196) were bleached at the same time and the eggs were incubated on PLATE 1. On day two, the worms were divided into two batches. One half of the worms were transferred (using M9 buffer) on PLATE 2 (without ligand) and the second half of the worms were transferred to PLATE 3 (with ligand). The concentration of the ligands varied from 10–50 µM as described in the main manuscript. The worms were incubated on PLATE 2 or PLATE 3 up to day 3 at 20 °C in an incubator with constant humidity. On day four, the ligand (10–50 µM, stock conc. = 10 mM in DMSO, DMSO from 0.1–0.5%, v/v) was added again to PLATE 3. For confocal imaging, at least 10 worms per condition (from PLATE 2 or PLATE 3) were transferred to a cover slide containing an anesthetic (40 mM sodium azide), and mounted on glass microscope slide containing 2% agarose pads using a reported protocol. The images of the worms were collected using an Olympus Fluoview FV3000 confocal/2-photon microscope (40 x Plan-Apo/1.3 NA objective with DIC capability) and processed using the OlympusViewer in ImageJ software. For NL5901 worms, the inclusions of the aggregated αS (GFP puncta in the muscle cells) were manually counted (10 worms per condition) for the five-day imaging period (day 5 to day 9) for PLATE 2 or PLATE 3. […]

[2] = biological target: T1, α-Synuclein (αS) aggregation (Homo sapiens, UniProt P37840); assay: Thioflavin T (ThT) dye-based αS aggregation assay (de novo); type: biochemical; settings: for ThT intensity of Synuclein with ligand, Average / ThT intensity of Synuclein with ligand, Trial 1-3: sheet S17; for ThT intensity of Synuclein with ligand, Average: average of 3 trials, Synuclein alone 206, ThT control 37; for ThT intensity of Synuclein with ligand, Trial 1-3: individual trials, Synuclein alone average 206, ThT control average 37
T1 construct: made in house; host or cells: E. coli BL21(DE3)
Method: We used a 2D FAST approach in OPs to identify potent antagonists of the aggregation of αS. In this approach, we start with a library of monopyridyls with different functional groups. The library of monopyridyls was synthesized using 2-chloro-6-methyl-3-nitropyridine as a common precursor, which was treated with primary alcohols with diverse side chain functionalities via a one-pot reaction (Fig. 1B, a and see Supplementary information for synthetic details). […] We selected the side chains containing hydrophobic, polar, positively charged, and negatively charged functional groups, which mimic the side chains of the amino acids (Fig. 1C). […] The monopyridyl library was screened against the aggregation of 100 μM αS at an equimolar ratio using Thioflavin T (ThT) dye-based aggregation assay (Fig. 1B, b). […] The chloro-dipyridyl was reacted with a library of primary amines/thiols to synthesize a library of dipyridyls (Fig. 1B, e) using a one-pot reaction. […] However, a few dipyridyls required column chromatography to separate them from the starting material side chains because of their very high boiling point (7 out of 21 dipyridyls required column, Supplementary Fig. 1). […]
Aggregation Kinetics were measured according to a previously described protocol. […] The solutions were placed in a ThermoMixer (Eppendorf, Hamberg, Germany) at 37 °C with constant shaking at 1300 rpm (rpm). At different time points, 5 μL aliquots of each αS solution were added to 95 μL PBS containing 50 μM Thioflavin T (ThT) dye in a Costar black 96 well plate (Corning Inc., Kennebunk, ME). ThT fluorescence intensity was measured (λex = 450 nm and λem = 490 nm) on an Infinite M200PRO plate reader (Tecan, Männedorf, Switzerland), and plotted against time to give a sigmoidal curve typical of amyloid aggregation. For the single point ThT aggregation, 100 μM αS, in the absence and presence of ligands, was aggregated under the described conditions and the ThT fluorescence was reported at 96 h. The reported ThT intensity values are the average of each experiment conducted in triplicate, with the error bars representing the standard deviations or standard error of the mean (s.e.m.) as described in the main manuscript.

[3] = 100 µM αS + equimolar ligand, comparison with reported ligands Fig. 5f, time 0 hr

Row | Structure (SMILES) | rescue of the degeneration of DA neurons in the post-disease onset PD model, in words (UA196 worms; 50 μM ligand on day five, day 15) | number of intact healthy DA neurons (max. 60) (UA196 worms; 50 μM ligand on day five) | healthy DA neurons per trial (UA196 worms) | Healthy DA neurons, UA196 worms+Ligands (UA196 worms) | rescue of the degeneration of DA neurons in UA196 worms, in words ([1]; 50 μM ligand) | number of intact DA neurons in UA196 worms (max. 60) [1] | Number of healthy DA neurons per trial (sheet 7L) [1] | Total neurons, UA196 worms+Ligands [1] | ThT fluorescence intensity, Average [2, 3] | decrease of the overall ThT intensity ([2]; 100 µM αS, equimolar, after 96 h) | ThT fluorescence intensity, Average ([2]; Fig. 5f profile, time 6 hr) | ThT fluorescence intensity, Average ([2]; Fig. 5f profile, time 12 hr) | ThT fluorescence intensity, Average ([2]; Fig. 5f profile, time 24 hr) | ThT fluorescence intensity, Average ([2]; Fig. 5f profile, time 36 hr) | ThT fluorescence intensity, Average ([2]; Fig. 5f profile, time 48 hr) | ThT fluorescence intensity, Average ([2]; Fig. 5f profile, time 72 hr) | ThT fluorescence intensity, Average ([2]; Fig. 5f profile, time 96 hr) | ThT intensity of Synuclein with ligand, Average [2] | ThT intensity of Synuclein with ligand, Trial 1-3 [2]
1 | O=C(O[C@@H]1Cc2c(O)cc(O)cc2O[C@@H]1c1cc(O)c(O)c(O)c1)c1cc(O)c(O)c(O)c1 [EGCG] | moderate in rescuing | 20.5 | 24 and 17 and 26 and 18 and 21 | 24 and 17 and 26 and 18 and 21 | moderate in rescuing | 30.5 | 26 and 33 and 32 and 27 and 31 and 34 | 26 and 33 and 32 and 27 and 31 and 34 | 56 | ~ 25% | 50.6667 | 62.3333 | 61.3333 | 75.6667 | 84 | 151.667 | 150.333 | 150.333 | 126 and 174 and 151
2 | C=C(c1ccc(C(=O)O)cc1)c1cc2c(cc1C)C(C)(C)CCC2(C)C [Bexarotene] |  | 13.2 | 11 and 17 and 13 and 10 | 11 and 17 and 13 and 10 |  | 19.3 | 19 and 22 and 20 and 16 and 21 and 18 | 19 and 22 and 20 and 16 and 21 and 18 | 55.6667 |  | 61.3333 | 52.3333 | 42 | 69.6667 | 159.667 | 195 | 186 | 186.333 | 176 and 194 and 189
3 | OCCc1ccc(O)cc1 [Tyrosol] |  | 14.3 | 12 and 19 and 17 and 11 and 15 | 12 and 19 and 17 and 11 and 15 |  | 21.7 | 22 and 23 and 17 and 21 and 24 | 22 and 23 and 17 and 21 and 24 | 49.6667 |  | 48.3333 | 49.6667 | 78.6667 | 140.667 | 137 | 175.333 | 229.667 | 229.667 | 238.6 and 233 and 217.4
4 | CCCC(CCC)C(=O)O [Valporic acid] |  | 13.5 | 9 and 17 and 15 and 11 and 16 and 13 | 9 and 17 and 15 and 11 and 16 and 13 |  | 18.7 | 21 and 16 and 22 and 17 and 20 | 21 and 16 and 22 and 17 and 20 | 62.3333 |  | 44 | 66.6667 | 135.333 | 121.333 | 133.333 | 167.333 | 165.667 | 165.667 | 177.5 and 155 and 164.5
